Results as given in PMC8399913, “Development of Arteannuin B Sustained-Release Microspheres for Anti-Tumor Therapy by Integrated Experimental and Molecular Modeling Approaches” (Pharmaceutics, 2021).
Where two headings read alike, the source gives them in different places.

Experiments:
[1] = test system: normal human embryonic liver cells L-02; experiment: Preliminary experiments: toxicity to normal cells; assay type: cell-based
[2] = test system: mouse lung cancer metastasis models; experiment: Preliminary experiments: mouse lung cancer metastasis models; assay type: in vivo
[3] = test system: A549 cells; experiment: Anti-tumor cell proliferation activity (MTT method); assay type: cell-based, human; conditions: mean ± SD, n = 3
Experimental: The human non-small cell lung cancer (NSCLC) cell line (A549) was from American Type Culture Collection (ATCC, Manassas, VA, USA). RPMI-1640 medium and fetal calf serum (FBS) were from Gibco Life Technologies (Grand Island, NY, USA). A549 cells were inoculated in RPMI 1640 medium (containing 10% FBS) in a 37 °C, 5% CO2 cell incubator for culture and storage.
A549 cells were seeded into a 96-well plate at a concentration of 5 × 10^3 per well. AB and ABMs were prepared with DMSO and a specific solvent to make the final concentration per well was 6.25, 12.5, 25, 50, and 100 μM. Here, the dosage of AB in ABMs is calculated according to the actual cumulative release amount in the solution, which is calculated as 55% in 96 h. In the experiment, the control group consisted of cells treated with DMSO and a specific solvent of ABMs and cells without any treatment. The MTT method was used to measure the optical density (OD) values of the cells at 24, 48, 72, and 96 h after treatment. The inhibition rate (IR) of each group of samples on tumor cell growth was calculated according to the following equation:(6) IR(%)=OD(solvent)−OD(exp)/OD(solvent)×100% where OD(solvent) is the mean OD of the solvent group and OD(exp) is the mean OD of the experimental group.
A dose–response curve could be obtained with different concentrations of the samples on the tumor cell growth inhibition, from which the half-inhibition concentration (IC50) of the sample can be obtained. There are five replicate holes in each group, and the average value of the five holes was taken. Three parallel experiments were carried out for each sample, and the results were expressed as mean ± standard deviation (mean ± SD). According to the inhibition rate of each group, the IC50 of AB and ABMs at each time point was calculated by the statistical software IBM SPSS Statistics 20.

[4] = PK study in SD rats (AB plasma concentration by LC-MS); assay type: in vivo, Sprague-Dawley rats; conditions: 3.5 mg/kg; for Cmax / half-life: Sprague-Dawley, rat, plasma
Experimental: There were 9 SD rats equally separated into three groups. The first two groups were injected with AB at a dose of 3.5 mg/kg, through different injection routes, either subcutaneous or intramuscular injections. Collect whole blood from the jugular vein of each rat one day before administration and 0, 0.08, 0.16, 0.25, 0.5, 1, 2, 4, 6, and 24 h after administration. The third group was a subcutaneous injection of ABMs with a dose of 50 mg/kg. The whole blood was collected from the jugular vein of each rat one day before the administration and 0.08, 0.25, 0.5, 1, 2, 4, 6, 24, 72, 168, and 240 h after administration. A 1.0 mL disposable syringe was used, and the blood volume was 0.2 mL each time. The whole blood sample was placed in a centrifuge tube (1.5 mL, Xinkang Medical, Taizhou, Jiang Su, China) containing 2000 KIU aprotinin and EDTA-K2 anticoagulant. Turn the centrifuge tube upside down to mix the anticoagulant with the blood thoroughly. Before centrifugation, it should be stored in a pre-cooled CoolRack module (Rack M30, Corning, NY, USA) on wet ice and centrifuged within 15 min after collection. Centrifugation was performed at 4000 rpm, 15 min, 4 °C. After centrifugation, the plasma was separated, the supernatant transferred to the label sample tube (the transfer process needs to be operated on ice), and the sample was checked and stored in the −80 °C refrigerator until analysis.
LC-MS spectrometry (TQ XS, Waters, Milford, MA, USA) was used to detect the plasma concentration of AB. The electrospray ion source (ESI+) in positive ion mode has an ion source temperature of 150 °C, a solvent removal temperature of 500 °C, and a capillary voltage of 0.5 kV. Multiple reaction monitoring (MRM) mass spectrometry parameters are: AB, m/z 249.1→189.1, cone voltage 20 V, collision voltage 10 eV; aripiprazole-D8 (internal reference), m/z 456.3→293.2, the cone voltage is 20 V, and the collision voltage is 25 eV.
SD male rat plasma 50 μL and 200 μL of precipitant (0.1% formic acid in acetonitrile, containing 0.2 ng/mL aripiprazole-D8 as an internal reference) was added into a 96-well plate, and the plate was shaken at 750 rpm (Compact Digital MicroPlate Shaker, Thermo fisher, Waltham, MA, USA) for 10 min. Next, the sample was centrifuged (Legend Micro 21R, Thermo fisher, Waltham, MA, USA) at 4200 rpm for 25 min. After centrifugation, 60 μL of the supernatant was added to a 96-well plate, and then 140 μL of pure water was added, and the plate was shaken at 750 rpm for 5 min before the sample was injected for detection.
HPLC was equipped with a C18 column (Waters, BEH, 130 Å, 2.1 × 50 mm, 1.7 μm), and the mobile phase consisted of elution A (0.1% w/v citric acid in 5%w acetonitrile aqueous solution) and elution B (0.1% w/v citric acid in 95%w acetonitrile aqueous solution) at the ratio of 70:30 v/v. The flow rate was set at 1 mL/min, and the injection volume was 10 μL. The column temperature was set at 60 °C.

[5] = cited from earlier work
[6] = test system: HT-29, HepG2, SGC-7901, A549, K562, B16-F10, and Du145 cells; experiment: Preliminary experiments: tumor cell proliferation; assay type: cell-based
[7] = design: method as in doi:10.1002/cjoc.19830010106; conditions: cited from earlier work
[8] = Tolerance of AB dissolved in Tween-80, ethanol and PEG-40; assay type: in vivo
[9] = test system: A549 xenograft tumor; experiment: In vivo anti-tumor activity, A549 xenograft tumor model; design: species or system BALB/c nude mice; conditions: 3 mg/kg once every 3 d; after four weeks
Experimental: A549 xenograft tumor model was obtained by subcutaneously injecting 1 × 10^6 cells (A549) into BALB/c nude mice. When the average size of the tumor reached about 100 mm^3, the tumor-bearing mice were randomly divided into 6 groups (6 mice in each group). The average size of tumors was calculated according to the equation 0.5 × a × b × b (a is the length, b is the width). The 700, 350, and 175 mg/kg dose groups of the ABMs were suspended in a specific solvent and then administered subcutaneously once a week, 4 times in total. […] The vehicle (microsphere without AB) group was given once a week for a total of 4 times. The model (saline) group was given once a day as a control. Meanwhile, a group of mice without any treatment (WT group) was selected as the standard group for comparison. The changes in food intake, water consumption, and mental state of the nude mice were observed and recorded every day after administration. The body weight and tumor size of the tumor-bearing mice were measured twice a week, and the relative tumor volume (RTV) of the nude mice was calculated by Equation (7). RTV = Vt/V0(7) where Vt is the tumor volume at each measurement and V0 is the tumor volume before administration. The relative tumor growth rate T/C (%) was calculated according to the following equation to evaluate the anti-tumor activity of each group. (8) T/C(%)=TRTV/CRTV×100%

In the case of `C=C1C(=O)O[C@@]23[C@H]1CC[C@@H](C)[C@@H]2CC[C@@]1(C)O[C@@H]31` [AB, Arteannuin B], the “toxicity to normal cells” value [1] is reported as “no obvious toxicity”, the therapeutic effect [2] is reported as “good therapeutic effect” and the IC50 ([3]; 96 h (day four)) is reported as 16.2 ± 4.78 µM. The IC50 ([3]; Homo sapiens, A549, 24 h, 24 h) was 211 ± 63.2 µM, the IC50 ([3]; Homo sapiens, A549, 48 h, 48 h) was 53.1 ± 22.5 µM and the IC50 ([3]; Homo sapiens, A549, 72 h, 72 h) was 27.5 ± 6.71 µM. It also gave an IC50 ([3]; Homo sapiens, A549, 96 h, 96 h (day four)) of 16 µM, a Cmax ([4]; male SD rats, IM, mean ± SEM) of 74.5 ± 34.2 ng/mL and a half-life ([4]; male SD rats, IM, mean ± SEM, read-out: t1/2 (converted)) of 2.3 h. The Cmax ([4]; male SD rats, SC, mean ± SEM) was 236 ± 100 ng/mL, the half-life ([4]; male SD rats, SC, mean ± SEM, read-out: t1/2 (converted)) was 1.15 h and the AUClast ([4]; male SD rats, IM, mean ± SEM) was 0.618 ± 0.131 ng·days/mL. The AUClast ([4]; male SD rats, SC, mean ± SEM) was 2.538 ± 0.842 ng·days/mL, the half-life ([4]; male, rats, read-out: elimination half-life (converted)) was roughly 1 h and the “AUClast from subcutaneous injection relative to intramuscular injection” value ([4]; rats) was “about four times that of intramuscular injection”. The elimination half-life [5] was “about 1 h”, the bioavailability ([5]; in animals) was 19–35% and the “proliferation of tumor cells” value [6] was “inhibit the proliferation”. For the same compound, the antimalarial activity [7] was “no antimalarial activity” and the tolerance after administration [8] was “significant intolerance symptoms”.

With `N.N.[Cl][Pt][Cl]` [DDP, Cis-platinum diamine-dichloride] the “tumor size (weight of dissected tumor)” value [9] was 0.38 ± 0.04 g.
